For data set [1] the following is noted: prior art; cited from earlier work.
The conditions of data set [2]: AMT 2 mg/m^2, adult patients, n=13, prior art; cited from earlier work.
Data set [3] is described as follows: Potency relative to methotrexate. The settings on record: therapeutically effective amount for the same level of efficacy.
A short description of data set [4]: Interpatient coefficient of variation of oral bioavailability. The format is in vivo. As to conditions: human, plasma, 2 mg/m2; AMT 2 mg/m^2 PO, pediatric and adult patients, n=27. How it is done: The term “interpatient coefficient of variation of oral bioavailability” as used herein refers to the coefficient of variation of oral bioavailability in a population of at least two patients, wherein the oral bioavailability is determined at least once for each patient in the population. Specifically, it is the standard deviation of oral bioavailability in the population divided by the interpatient oral bioavailability, expressed as a percent. […] It is sufficient to use a representative number of patients from a particular patient population to establish the interpatient coefficient of variation of oral bioavailability for that population, where at least 5 patients will be required in order to establish the interpatient coefficient of variation of oral bioavailability of a population.
The standard deviation of oral bioavailability and interpatient oral bioavailability were determined among 27 matched patients.
Pharmacol. 10(1):36, 1982].

Read-outs that look alike come from different tables or passages of the source.

Consider `Nc1nc(N)c2nc(CNc3ccc(C(=O)N[C@@H](CCC(=O)O)C(=O)O)cc3)cnc2n1` [AMT], for which the “potency relative to methotrexate” value in data set [1] is listed as “at least 10 times”. Besides, in data set [2], the “Interpatient oral bioavailability (%)” value is recorded as 85%, the “Maximum (%) oral bioavailability” value is 163% and the “Minimum (%) oral bioavailability” value is 32%. For the same compound, the “potency relative to methotrexate” value in data set [3] was “about 25 times”. The Interpatient coefficient of variation of oral bioavailability in data set [4] came out at 42%.

The values above are taken from patent publication US7612071B2, “Compositions and methods employing aminopterin” (Syntrix Biosystems, Inc., priority 2004, dated 2009).
